These results are taken from US5798442A, “Peptidyl derivatives as inhibitors of pro-apoptotic cysteine proteinases” (Merck Frosst Canada, Inc., priority 1995, dated 1998).

“Also recorded” adds a separate entry of the source.

Data set [1] has as its target T1, PARP cleavage activity in apoptotic osteosarcoma cell extracts (Homo sapiens, UniProt P42574).
T1 construct: 10 μg protein from the cytosol fraction of apoptotic osteosarcoma cells (from 7 day, post-confluent cultures); endogenous in cells; host or cells: human osteosarcoma cells 143.98.2 (ATCC CRL 11226), 7 day post-confluent (apoptotic), cytosol fraction
T1 sequence (P42574 29-175 limits assumed): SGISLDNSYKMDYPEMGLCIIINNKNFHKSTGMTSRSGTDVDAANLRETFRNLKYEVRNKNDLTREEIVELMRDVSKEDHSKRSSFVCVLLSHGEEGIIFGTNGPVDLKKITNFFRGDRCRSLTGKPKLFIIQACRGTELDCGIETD
T1 sequence (P42574 176-277 limits assumed): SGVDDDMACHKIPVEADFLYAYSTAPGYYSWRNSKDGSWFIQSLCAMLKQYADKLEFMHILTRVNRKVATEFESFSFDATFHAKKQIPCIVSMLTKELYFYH
The data set is described as follows: [35S]PARP cleavage by cytosolic extracts of apoptotic osteosarcoma cells. The class given is biochemical. The conditions noted are these: for effect on proteolytic cleavage of PARP: FIG. 2a, 5 mM N-ethylmaleimide, 5 mM iodoacetamide, 10 μM E-64; for IC50: apoptotic osteosarcoma cell extracts, [35S]PARP, read-out: IC50 for inhibition of PARP cleavage activity.

The target of the next data set is T2, apopain/CPP32 (Homo sapiens, UniProt P42574).
T2 construct: cleavage between Asp^28 -Ser^29 and Asp^175 -Ser^176; cleavage sites which yield the p17 and p12 subunits from the CPP32 proenzyme; endogenous in cells; host or cells: THP-1 cells (ATCC TIB 202)
T2 sequence (P42574 29-175 limits assumed): T1 sequence (P42574 29-175 limits assumed)
T2 sequence (P42574 176-277 limits assumed): T1 sequence (P42574 176-277 limits assumed)
Nature of the data set: continuous fluorometric assay with Ac-DEVD-AMC and purified apopain. Type of data set: biochemical.

The subject of a further data set is intact cells. Nature of the data set: activity in intact cells. Type of data set: cell-based.

For `NC(=O)CI` [iodoacetamide], the “effect on proteolytic cleavage of PARP” value in data set [1] is reported as “abolished”.

As to `CC(=O)N[C@@H](CC(=O)O)C(=O)N[C@@H](CCC(=O)O)C(=O)N[C@H](C(=O)NC(C=O)CC(=O)O)C(C)C` (stereo partly drawn) [Ac-DEVD-CHO, N-(N-Acetyl-L-aspartyl-L-glutamyl-L-valinyl)-3-amino-3-formylpropionic acid], the “enzyme activity at infinite time” value at apopain/CPP32 (50 nM inhibitor, 1×Km Ac-DEVD-AMC) is “complete inhibition; also recorded: nearly complete suppression”. In addition, in the data set on intact cells, the “activity in intact cells” value was “inactive” and the membrane permeability entry was “membrane impermeable”.

For orientation: IC50 means the concentration that inhibits the measured activity by half. A word on the Ki: it is a measure of affinity in units of concentration, obtained from inhibition or displacement. A low value points to a stronger hold on the target. With `CC(=O)N[C@@H](Cc1ccc(O)cc1)C(=O)N[C@H](C(=O)N[C@@H](C)C(=O)N[C@H](C=O)CC(=O)O)C(C)C` [Ac-YVAD-CHO], the half-maximal inhibitory concentration (IC50) in data set [1] is more than 10 µM. The molecule further gave a Ki at apopain/CPP32 of 12 µM.

Take `CC(=O)N[C@@H](CC(=O)O)C(=O)N[C@@H](CCC(=O)O)C(=O)N[C@H](C(=O)N[C@@H](CC(=O)O)C(=O)O)C(C)C` [Ac-DEVD-COOH, N-Acetyl-aspartyl-glutamyl-valinyl-aspartic acid]: the IC50 in data set [1] is more than 10 µM.

Take `CC(C)C[C@H](NC(=O)[C@H]1O[C@@H]1C(=O)O)C(=O)NCCCCN=C(N)N` [Example E-64]: in data set [1], the “effect on proteolytic cleavage of PARP” value is “not”.

In the case of `CCN1C(=O)C=CC1=O` [N-ethylmaleimide], the “effect on proteolytic cleavage of PARP” value in data set [1] is on record as “abolished”.
